Laboratory results: article PMC6598759, “In vitro genotoxicity of nitroimidazoles as a tool in the search of new trypanocidal agents” (Memórias do Instituto Oswaldo Cruz, 2019)
Where two headings read alike, the source gives them in different places.

Tests used:
[1] = system: whole human blood cells (WHBC); conditions: 149-6,400 µM, 2 h, p > 0.1; cited from earlier work
[2] = system: whole human blood cells (WHBC); conditions: cited from earlier work; for percentage decrease in cell viability: 2 h
[3] = system: whole human blood cells (WHBC); assay: In vitro cytokinesis-block micronucleus assay (CBMN) with whole human blood cells
Method: In vitro cytokinesis-block micronucleus assay (CBMN) with whole human blood cells (WHBC) - Heparinised WHBC samples were obtained by venipuncture from volunteers as described above. […] WHBC cultures exposed to mitomycin C (MMC) (1.0 µg/mL in water) (Bristol, USA) for 2 h or to N-deacetyl-N-methylcolchicine in water (Demecolcine: Sigma-Aldrich) 0.02 µg/mL for 28 h were used as positive control cultures. After the treatment, the WHBC cultures were centrifuged (900 rpm, 10 min) and washed with 5 mL PBS. […] CytB has cytokinesis-block activity leading to the formation of binucleate cells. […] The fixed cell suspension was dropped on a clean glass slide and the slide was air-dried on a heating plate (60 °C). Air-dried slides were stained with 60 µg/mL acridine orange in Sörensen buffer (0.03 M KH2PO4, 0.03 M Na2HPO4) for 3s, then they were embedded in distilled water and covered with a coverslip. MN showing bright green fluorescence were analysed using a fluorescence microscope at 400 X magnification. MN were scored in 2,000 binucleated cells (BNC) for culture and the number of the micronucleate cells (MNC) in 2,000 BNC was determined. Cytotoxicity was measured using the cytokinesis-block proliferation index (CBPI) and the replication index (RI) which were calculated from 500 cells. The CBPI indicates the average number of nuclei per cell, and may be used to calculate cell proliferation. The RI indicates the relative number of cell cycles per cell during the period of exposure to cytoB in treated cultures compared to control cultures and can be used to calculate the % cytostasis. CBPI was calculated according to the formula: CBPI = [(No. mononucleate cells) + (2 x No. binucleate cells) + (3 x No. multinucleate cells)] / N, where N indicates the total number of cells scored. RI (%) was calculated according to the formula:
RI %=((No. binucleate cells) + (2 x No. multinucleate cells)) ÷ (Total number of cells)T/((No. binucleate cells) + (2 x No. multinucleate cells)) ÷ (Total number of cells)C x 100
where T indicates treated cultures and C control cultures
Cytotoxicity was evidenced in the occurrence of reduction in CBPI or RI of cultures treated by test substances when compared to control cultures. The measurement of cytotoxicity was used to select the concentrations of the test substance to be analysed for the presence of MN. […] However, it was adopted in this work as the maximum concentration in CBMN one that induced a proliferation inhibition not exceeding about 50% established by ICH S2 (R1) for lymphocyte cultures.
The chi-square test for trend was performed to analyse if the increase of MNC was concentration-related.[30]

[4] = system: bloodstream trypomastigotes form Y strain of T. cruzi; conditions: read-out: IC50/24 h (concentration that produces 50% lysis of the parasites), trypomastigote forms; cited from earlier work

Cn1c([N+](=O)[O-])cnc1-c1nnc(N)[nH]1 [Compound 4]
DNA strand breaks compared to solvent-control [1]: did not cause DNA strand breaks | percentage decrease in cell viability ([2]; 149 µM): 1.0% | percentage decrease in cell viability ([2]; 238 µM): 1.0% | percentage decrease in cell viability ([2]; 382 µM): 1.0% | percentage decrease in cell viability ([2]; 610 µM): 0% | percentage decrease in cell viability ([2]; 1,562 µM): 1.0% | percentage decrease in cell viability ([2]; 2,500 µM): 1.0% | percentage decrease in cell viability ([2]; 4,000 µM): 0% | percentage decrease in cell viability ([2]; 6,400 µM): 0% | lethality variation range ([2]; 149-6,400 µM, 2 h at 37 °C, compared to solvent-control): 1-4% | CBPI ([3]; 150 µM, 4 h): 1.220 | NMNC/2000 binucleated cells ([3]; 150 µM, 4 h): 28 | RI (%) ([3]; 150 µM, 4 h): 106% | CBPI ([3]; 640 µM, 4 h): 1.230 | NMNC/2000 binucleated cells ([3]; 640 µM, 4 h): 36 | RI (%) ([3]; 640 µM, 4 h): 107% | CBPI ([3]; 1,600 µM, 4 h): 1.218 | NMNC/2000 binucleated cells ([3]; 1,600 µM, 4 h): 44 | RI (%) ([3]; 1,600 µM, 4 h): 76% | CBPI ([3]; 4,000 µM, 4 h): 1.054 | RI (%) ([3]; 4,000 µM, 4 h): 22% | CBPI ([3]; 10,000 µM, 4 h): 1.052 | RI (%) ([3]; 10,000 µM, 4 h): 23% | maximum concentration used in MN analysis (inducing in the maximum 50% reduction of CBPI or RI) ([3]; 4 h, relative to solvent-control): 1,600 μM | concentrations with significant mutagenic effect (increase of MNC) ([3]; 4 h, p < 0.01 for 3, p < 0.05 for 4 and 7): 1,600 μM | result in the CBMN ([3]; overall call): clastogenic and/or aneugenic | IC50 [4]: 257 ± 53 µM
